Laboratory results as given in paper PMC11676834, “Composition of Triterpene Glycosides of the Far Eastern Sea Cucumber Cucumaria conicospermium Levin et Stepanov; Structure Elucidation of Five Minor Conicospermiumosides A3-1, A3-2, A3-3, A7-1, and A7-2; Cytotoxicity of the Glycosides Against Human Breast Cancer Cell Lines; Structure–Activity …” (Marine Drugs, 2024).
Structures can show the parent of a compound that is named as a salt. Where two headings read alike, the source gives them in different places.

Legend:
MCF-7 cells = assay: cells; assay type: cell-based, human; conditions: MTT, 24 h, read-out: Cytotoxicity, IC50, MCF-7
From the text: (§1) Human erythrocytes were purchased from the Station of Blood Transfusion, Vladivostok. Human mammary epithelial cell line MCF-10A CRL-10317, human breast cancer cell lines T-47D HTB-133, MCF-7 HTB-22, and MDA-MB-231 CRM-HTB-26 were received from ATCC (Manassas, VA, USA). Culturing conditions: medium of RPMI-1640 with 1% penicillin/streptomycin (Biolot, St. Petersburg, Russia) and 10% fetal bovine serum (FBS) (Biolot, St. Petersburg, Russia) for the T-47D cell line; Minimum Essential Medium (MEM) with 1% penicillin/streptomycin sulfate (Biolot, St. Petersburg, Russia) and FBS (Biolot, St. Petersburg, Russia) to a final concentration of 10% for MCF-7 and MDA-MB-231 cells; DMEM/F12 medium with 10% FBS, 20 ng/mL EGF, […] hydrocortisone, 100 ng/mL cholera toxin, 10 μg/mL insulin, and 1% penicillin/streptomycin (BioinnLabs, Rostov-on-Don, Russia) for MCF-10A cell line.
(§2) The concentrations of tested glycosides were 0.1–50 µM; positive controls were cisplatin and okhotoside A1-1 (7). Methodology: to each well of 96-well plates, the cell suspension (180 µL) with solution (20 µL) of tested glycoside in a certain concentration was placed (MCF-10A, MCF-7, T-47D, and MDA-MB-231—7 × 10^3 cells per well) and incubated in the atmosphere with 5% CO2 at 37 °C for 24 h. Then, the solutions of tested compounds with medium were replaced by 100 µL of fresh medium, and 10 µL of 3-(4,5-dimethylthiazol-2-yl)-2,5-diphenyltetrazolium bromide (MTT) (PanReac, AppliChem, Darmstadt, Germany) stock solution (5 mg/mL) was added to each well and incubated for 4 h, followed by the addition of 100 µL of SDS-HCl solution (1 g SDS/10 mL d-H2O/17 µL 6 N HCl) and further incubated for 18 h. Multiskan FC microplate photometer (Thermo Fisher Scientific, Waltham, MA, USA) was used to measure the absorbance of the converted dye formazan at 570 nm. The concentration caused the 50% cell metabolic activity inhibition (IC50) expresses the cytotoxic activity of each glycoside. The experiments were conducted in triplicate, p ≤ 0.05.

T-47D cells = assay: cells; assay type: cell-based, human; conditions: MTT, 24 h, read-out: Cytotoxicity, IC50, T-47D
From the text: as §1, §2

MDA-MB-231 cells = assay: cells; assay type: cell-based, human; conditions: MTT, 24 h, read-out: Cytotoxicity, IC50, MDA-MB-231
From the text: as §1
as §2, with “Methodology: to each well of 96-well plates, the cell suspension (180 µL) with solution (20 µL) of tested glycoside in a certain concentration was placed (MCF-10A, MCF-7, T-47D, and MDA-MB-231—7 × 10^3 cells per well) and incubated in the atmosphere with 5% CO2 at 37 °C for 24 h.” left out

in vitro = assay type: cell-based, human; conditions: human, MTT, 24 h; read-out: Cytotoxicity, IC50, MCF-10A
From the text: as §1
as §2, with “Methodology: to each well of 96-well plates, the cell suspension (180 µL) with solution (20 µL) of tested glycoside in a certain concentration was placed (MCF-10A, MCF-7, T-47D, and MDA-MB-231—7 × 10^3 cells per well) and incubated in the atmosphere with 5% CO2 at 37 °C for 24 h.” left out

human erythrocytes = assay: Hemolytic activity; assay type: cell-based; conditions: Erythrocyte, 1 h at 37 °C, read-out: ED50, Erythrocytes (hemolytic activity)
Experimental: Human blood (B(III) Rh+) was used to obtain erythrocytes by centrifuging 450× g three times for 5 min with phosphate-buffered saline (PBS) (pH 7.4) at 4 °C on centrifuge LABOFUGE 400R (Heraeus, Hanau, Germany). Ice-cold PBS (pH 7.4) was used for resuspension of erythrocytes residue to a final optical density of 1.5 at 700 nm, which was kept on ice. Then, 10 µL of tested compound solution or control (okhotoside A1-1 (7)) were added to 90 µL of erythrocyte suspension in V-bottom 96-well plates and exposed for 1 h at 37 °C. Next, centrifugation at 900× g for 10 min on a laboratory centrifuge LMC-3000 (Biosan, Riga, Latvia), led to separation of layers, and 80 µL of supernatant was carefully decanted and transferred into new flat-plate for each. The values of erythrocyte lysis were measured on microplate photometer Multiskan FC (Thermo Fisher Scientific, Waltham, MA, USA) at λ = 570 nm as hemoglobin concentration in supernatant. The effective dose, causing lysis of 50% erythrocytes (ED50), was calculated with SigmaPlot 14.0 software. All the experiments were carried out in triple repetitions, p ≤ 0.05.

MCF-10A cells = assay: in vitro; assay type: cell-based, human; conditions: MTT, 24 h; read-out: Cytotoxicity, IC50, MCF-10A
From the text: as §1
as §2, with “Methodology: to each well of 96-well plates, the cell suspension (180 µL) with solution (20 µL) of tested glycoside in a certain concentration was placed (MCF-10A, MCF-7, T-47D, and MDA-MB-231—7 × 10^3 cells per well) and incubated in the atmosphere with 5% CO2 at 37 °C for 24 h.” left out

Structure (SMILES)	IC50 (MCF-7 cells; Homo sapiens, MCF7) [µM]	IC50 (T-47D cells; Homo sapiens, T47D) [µM]	IC50 (MDA-MB-231 cells; Homo sapiens, MDA-MB-231) [µM]	IC50 (in vitro) [µM]	HC50 (human erythrocytes) [nM]	IC50 (MCF-7 cells) [µM]	IC50 (T-47D cells) [µM]	IC50 (MDA-MB-231 cells) [µM]	IC50 (MCF-10A cells) [µM]
CO[C@@H]1[C@@H](O)[C@H](O[C@@H]2[C@@H](O)[C@H](O[C@H]3[C@H](O)[C@@H](O[C@@H]4OC[C@@H](O)[C@H](O)[C@H]4O)[C@H](O[C@H]4[C@H](O[C@H]5CC[C@]6(C)C7CC[C@]8(C)[C@@H]([C@@](C)(O)[C@@H](CC=C(C)C)OC(C)=O)CC[C@@]8(C)C7=CC[C@H]6C5(C)C)OC[C@@H](OS(=O)(=O)O)[C@@H]4O)O[C@@H]3C)O[C@H](COS(=O)(=O)O)[C@H]2O)O[C@H](CO)[C@H]1O (stereo partly drawn) [Conicospermiumoside A3-2 (2), 3β-O-{3-O-methyl-β-D-glucopyranosyl-(1→3)-6-O-sodium sulfate-β-D-glucopyranosyl-(1→4)-[(1→2)-β-D-xylopyranosyl]-β-D-quinovopyranosyl-(1→2)-4-O-sodium sulfate-β-D-xylopyranosyl}-20R-hydroxy,22R-acetoxylanosta-7,24-diene]	> 50	38.9 ± 1.62	20.7 ± 2.28	36.8 ± 2.48	7560 ± 80	–	–	–	–
CO[C@@H]1[C@@H](O)[C@H](O[C@@H]2[C@@H](O)[C@H](O[C@H]3[C@H](O)[C@@H](O[C@@H]4OC[C@@H](O)[C@H](O)[C@H]4O)[C@H](O[C@H]4[C@H](O[C@H]5CC[C@]6(C)C7CC[C@]8(C)[C@@H]([C@@](C)(O)[C@H](O)/C=C/C(C)(C)O)CC[C@@]8(C)C7=CC[C@H]6C5(C)C)OC[C@@H](OS(=O)(=O)O)[C@@H]4O)O[C@@H]3C)O[C@H](COS(=O)(=O)O)[C@H]2O)O[C@H](COS(=O)(=O)O)[C@H]1O (stereo partly drawn) [Conicospermiumoside A7-2 (5), 3β-O-{6-O-sodium sulfate-3-O-methyl-β-D-glucopyranosyl-(1→3)-6-O-sodium sulfate-β-D-glucopyranosyl-(1→4)-[(1→2)-β-D-xylopyranosyl]-β-D-quinovopyranosyl-(1→2)-4-O-sodium sulfate-β-D-xylopyranosyl}-(20R,22R,25)-trihydroxylanosta-7,23-diene]	> 50	> 50	49.9 ± 1.45	> 50	20400 ± 360	–	–	–	–
CO[C@@H]1[C@@H](O)[C@H](O[C@@H]2[C@@H](O)[C@H](O[C@H]3[C@H](O)[C@@H](O[C@@H]4OC[C@@H](O)[C@H](O)[C@H]4O)[C@H](O[C@H]4[C@H](O[C@H]5CC[C@]6(C)C7CC[C@]8(C)[C@@H]([C@@](C)(O)[C@H](O)CC=C(C)C)CC[C@@]8(C)C7=CC[C@H]6C5(C)C)OC[C@@H](OS(=O)(=O)O)[C@@H]4O)O[C@@H]3C)O[C@H](COS(=O)(=O)O)[C@H]2O)O[C@H](COS(=O)(=O)O)[C@H]1O (stereo partly shown) [Frondoside A7-4 (14), frondoside A7-4]	32.9 ± 2.13	44.5 ± 2.18	8.11 ± 0.74	26.8 ± 0.94	2160 ± 60	–	–	–	–
CO[C@@H]1[C@@H](O)[C@H](O[C@@H]2[C@@H](O)[C@H](O[C@H]3[C@H](O)[C@@H](O[C@@H]4OC[C@@H](O)[C@H](O)[C@H]4O)[C@H](O[C@H]4[C@H](OC5CC[C@]6(C)[C@H]7CCC89C(=O)O[C@@](C)(CCCC(C)C)C8[C@@H](OC(C)=O)C[C@@]9(C)C7=CC[C@H]6C5(C)C)OC[C@@H](OS(=O)(=O)O)[C@@H]4O)O[C@@H]3C)OC[C@H]2O)O[C@H](CO)[C@H]1O (stereo partly shown) [Frondoside A (10), frondoside A]	19.4 ± 0.48	9.76 ± 0.53	2.79 ± 0.09	11 ± 1.04	1220 ± 60	–	–	–	–
COC1C(O)C(CO)OC(OC2C(O)COC(OC3C(C)OC(OC4C(OC5CCC6(C)C7CCC89C(=O)OC(C)(CC(=O)CC(C)C)C8C(OC(C)=O)CC9(C)C7=CCC6C5(C)C)OCC(OS(=O)(=O)O)C4O)C(O)C3O)C2O)C1O (stereo not shown) [Okhotoside A1-1 (7), okhotoside A1-1]	10.9 ± 0.96	6.23 ± 0.68	2.25 ± 0.17	7.95 ± 0.44	420 ± 20	–	–	–	–
C=C(C)CCC[C@]1(C)OC(=O)C23CC[C@H]4C(=CC[C@H]5C(C)(C)C(O[C@@H]6OC[C@@H](OS(=O)(=O)O)[C@H](O)[C@H]6O[C@@H]6O[C@H](CO)[C@@H](O[C@@H]7O[C@H](COS(=O)(=O)O)[C@@H](O)[C@H](O[C@@H]8O[C@H](CO)[C@@H](O)[C@H](OC)[C@H]8O)[C@H]7O)[C@H](O)[C@H]6O[C@@H]6OC[C@@H](O)[C@H](O)[C@H]6O)CC[C@]45C)[C@]2(C)C[C@H](OC(C)=O)C31 (stereo partly shown) [Okhotoside B2 (9), okhotoside B2]	39.8 ± 2.96	11.1 ± 1.15	4.25 ± 0.38	10.7 ± 0.21	1360 ± 100	–	–	–	–
N.N.[Cl][Pt][Cl] [cisplatin, reference compound]	–	–	–	–	–	113 ± 2.45	> 160	≥ 160	74.3 ± 2.19
